Data published in ChEMBL document CHEMBL1129347, “Topographical amino acid substitution in position 10 of glucagon leads to antagonists/partial agonists with greater binding differences” (J Med Chem, 1996).

Target: Glucagon receptor (Rattus norvegicus, UniProt P30082)
Assay: Inhibition of [125I]glucagon binding towards Glucagon receptor

Glucagon receptor, sequence (P30082 whole entry): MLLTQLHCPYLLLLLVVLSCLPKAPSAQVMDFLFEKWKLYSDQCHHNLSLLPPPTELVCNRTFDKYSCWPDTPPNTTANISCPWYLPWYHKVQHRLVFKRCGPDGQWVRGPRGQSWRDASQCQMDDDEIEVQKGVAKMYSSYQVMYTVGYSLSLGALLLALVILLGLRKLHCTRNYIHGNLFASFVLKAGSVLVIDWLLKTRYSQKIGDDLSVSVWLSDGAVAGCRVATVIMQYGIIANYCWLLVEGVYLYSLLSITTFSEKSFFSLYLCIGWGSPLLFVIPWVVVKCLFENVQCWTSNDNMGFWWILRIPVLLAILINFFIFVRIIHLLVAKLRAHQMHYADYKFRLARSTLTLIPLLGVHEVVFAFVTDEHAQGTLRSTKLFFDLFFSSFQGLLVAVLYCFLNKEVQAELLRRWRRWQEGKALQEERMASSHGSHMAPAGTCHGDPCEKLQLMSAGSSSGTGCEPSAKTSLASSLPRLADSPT

| SMILES | IC50 |
| --- | --- |
| CSCC[C@H](NC(=O)[C@H](CC(C)C)NC(=O)[C@H](Cc1c[nH]c2ccccc12)NC(=O)[C@H](CCC(N)=O)NC(=O)[C@@H](NC(=O)[C@H](Cc1ccccc1)NC(=O)[C@H](CC(=O)O)NC(=O)[C@H](CCC(N)=O)NC(=O)[C@H](C)NC(=O)[C@H](CCCNC(=N)N)NC(=O)[C@H](CCCNC(=N)N)NC(=O)[C@H](CO)NC(=O)[C@H](CC(=O)O)NC(=O)[C@H](CC(C)C)NC(=O)[C@H](Cc1ccc(O)cc1)NC(=O)[C@H](CCCCN)NC(=O)[C@H](CO)NC(=O)[C@@H](Cc1ccccc1)NC(=O)[C@H](CCC(=O)O)NC(=O)[C@H](CO)NC(=O)[C@@H](NC(=O)[C@H](Cc1ccccc1)NC(=O)[C@H](Cc1ccc(O)cc1)NC(=O)CNC(=O)[C@H](CCC(N)=O)NC(=O)[C@@H](N)CO)[C@@H](C)O)C(C)C)C(=O)N[C@@H](CC(N)=O)C(=O)N[C@H](C(N)=O)[C@@H](C)O | 34.5 nM |
| CSCC[C@H](NC(=O)[C@H](CC(C)C)NC(=O)[C@H](Cc1c[nH]c2ccccc12)NC(=O)[C@H](CCC(N)=O)NC(=O)[C@@H](NC(=O)[C@H](Cc1ccccc1)NC(=O)[C@H](CC(=O)O)NC(=O)[C@H](CCC(N)=O)NC(=O)[C@H](C)NC(=O)[C@H](CCCNC(=N)N)NC(=O)[C@H](CCCNC(=N)N)NC(=O)[C@H](CO)NC(=O)[C@H](CC(=O)O)NC(=O)[C@H](CC(C)C)NC(=O)[C@H](Cc1ccc(O)cc1)NC(=O)[C@H](CCCCN)NC(=O)[C@H](CO)NC(=O)[C@H](C)NC(=O)[C@H](CCC(=O)O)NC(=O)[C@H](CO)NC(=O)[C@@H](NC(=O)[C@H](Cc1ccccc1)NC(=O)[C@H](Cc1ccc(O)cc1)NC(=O)CNC(=O)[C@H](CCC(N)=O)NC(=O)[C@@H](N)CO)[C@@H](C)O)C(C)C)C(=O)N[C@@H](CC(N)=O)C(=O)N[C@H](C(N)=O)[C@@H](C)O | 395 nM |
| CSCC[C@H](NC(=O)[C@H](CC(C)C)NC(=O)[C@H](Cc1c[nH]c2ccccc12)NC(=O)[C@H](CCC(N)=O)NC(=O)[C@@H](NC(=O)[C@H](Cc1ccccc1)NC(=O)[C@H](CC(=O)O)NC(=O)[C@H](CCC(N)=O)NC(=O)[C@H](C)NC(=O)[C@H](CCCNC(=N)N)NC(=O)[C@H](CCCNC(=N)N)NC(=O)[C@H](CO)NC(=O)[C@H](CC(=O)O)NC(=O)[C@H](CC(C)C)NC(=O)[C@H](Cc1ccc(O)cc1)NC(=O)[C@H](CCCCN)NC(=O)[C@H](CO)NC(=O)[C@H](Cc1ccccc1)NC(=O)[C@H](CCC(=O)O)NC(=O)[C@H](CO)NC(=O)[C@@H](NC(=O)[C@H](Cc1ccccc1)NC(=O)[C@H](Cc1ccc(O)cc1)NC(=O)CNC(=O)[C@H](CCC(N)=O)NC(=O)[C@@H](N)CO)[C@@H](C)O)C(C)C)C(=O)N[C@@H](CC(N)=O)C(=O)N[C@H](C(N)=O)[C@@H](C)O | 4.1 nM |
| CSCC[C@H](NC(=O)[C@H](CC(C)C)NC(=O)[C@H](Cc1c[nH]c2ccccc12)NC(=O)[C@H](CCC(N)=O)NC(=O)[C@@H](NC(=O)[C@H](Cc1ccccc1)NC(=O)[C@H](CC(=O)O)NC(=O)[C@H](CCC(N)=O)NC(=O)[C@H](C)NC(=O)[C@H](CCCN=C(N)N)NC(=O)[C@H](CCCN=C(N)N)NC(=O)[C@H](CO)NC(=O)[C@H](CC(=O)O)NC(=O)[C@H](CC(C)C)NC(=O)[C@H](Cc1ccc(O)cc1)NC(=O)[C@H](CCCCN)NC(=O)[C@H](CO)NC(=O)[C@@H](Cc1ccc(O)cc1)NC(=O)[C@H](CCC(=O)O)NC(=O)[C@H](CO)NC(=O)[C@@H](NC(=O)[C@H](Cc1ccccc1)NC(=O)[C@H](Cc1ccc(O)cc1)NC(=O)CNC(=O)[C@H](CCC(N)=O)NC(=O)[C@@H](N)CO)[C@@H](C)O)C(C)C)C(=O)N[C@@H](CC(N)=O)C(=O)N[C@H](C(N)=O)[C@@H](C)O | 74 nM |
| CSCC[C@H](NC(=O)[C@H](CC(C)C)NC(=O)[C@H](Cc1c[nH]c2ccccc12)NC(=O)[C@H](CCC(N)=O)NC(=O)[C@@H](NC(=O)[C@H](Cc1ccccc1)NC(=O)[C@H](CC(=O)O)NC(=O)[C@H](CCC(N)=O)NC(=O)[C@H](C)NC(=O)[C@H](CCCN=C(N)N)NC(=O)[C@H](CCCN=C(N)N)NC(=O)[C@H](CO)NC(=O)[C@H](CC(=O)O)NC(=O)[C@H](CC(C)C)NC(=O)[C@H](Cc1ccc(O)cc1)NC(=O)[C@H](CCCCN)NC(=O)[C@H](CO)NC(=O)[C@@H](NC(=O)[C@H](CCC(=O)O)NC(=O)[C@H](CO)NC(=O)[C@@H](NC(=O)[C@H](Cc1ccccc1)NC(=O)[C@H](Cc1ccc(O)cc1)NC(=O)CNC(=O)[C@H](CCC(N)=O)NC(=O)[C@@H](N)CO)[C@@H](C)O)[C@H](C)c1ccccc1)C(C)C)C(=O)N[C@@H](CC(N)=O)C(=O)N[C@H](C(N)=O)[C@@H](C)O | 10 nM |
| CSCC[C@H](NC(=O)[C@H](CC(C)C)NC(=O)[C@H](Cc1c[nH]c2ccccc12)NC(=O)[C@H](CCC(N)=O)NC(=O)[C@@H](NC(=O)[C@H](Cc1ccccc1)NC(=O)[C@H](CC(=O)O)NC(=O)[C@H](CCC(N)=O)NC(=O)[C@H](C)NC(=O)[C@H](CCCN=C(N)N)NC(=O)[C@H](CCCN=C(N)N)NC(=O)[C@H](CO)NC(=O)[C@H](CC(=O)O)NC(=O)[C@H](CC(C)C)NC(=O)[C@H](Cc1ccc(O)cc1)NC(=O)[C@H](CCCCN)NC(=O)[C@H](CO)NC(=O)[C@H](Cc1ccc(O)cc1)NC(=O)[C@H](CCC(=O)O)NC(=O)[C@H](CO)NC(=O)[C@@H](NC(=O)[C@H](Cc1ccccc1)NC(=O)[C@H](Cc1ccc(O)cc1)NC(=O)CNC(=O)[C@H](CCC(N)=O)NC(=O)[C@@H](N)CO)[C@@H](C)O)C(C)C)C(=O)N[C@@H](CC(N)=O)C(=O)N[C@H](C(N)=O)[C@@H](C)O | 2.3 nM |
| CSCC[C@H](NC(=O)[C@H](CC(C)C)NC(=O)[C@H](Cc1c[nH]c2ccccc12)NC(=O)[C@H](CCC(N)=O)NC(=O)[C@@H](NC(=O)[C@H](Cc1ccccc1)NC(=O)[C@H](CC(=O)O)NC(=O)[C@H](CCC(N)=O)NC(=O)C(C)NC(=O)[C@H](CCCN=C(N)N)NC(=O)[C@H](CCCN=C(N)N)NC(=O)[C@H](CO)NC(=O)[C@H](CC(=O)O)NC(=O)[C@H](CC(C)C)NC(=O)[C@H](Cc1ccc(O)cc1)NC(=O)[C@H](CCCCN)NC(=O)[C@H](CO)NC(=O)C(C)NC(=O)[C@H](CCC(=O)O)NC(=O)[C@H](CO)NC(=O)[C@@H](NC(=O)[C@H](Cc1ccccc1)NC(=O)[C@H](Cc1ccc(O)cc1)NC(=O)CNC(=O)[C@H](CCC(N)=O)NC(=O)[C@@H](N)CO)[C@@H](C)O)C(C)C)C(=O)N[C@@H](CC(N)=O)C(=O)N[C@H](C(N)=O)[C@@H](C)O (stereo in doubt) | 510 nM |
